# Measurements from PMC11784013, “Potassium molybdate blocks APN-dependent coronavirus entry by degrading receptor via PIK3C3-mediated autophagy” (Journal of Virology, 2024).
# What was measured:
# [1] = system: PRCV; assay: PRCV infection of porcine intestinal organoids (monolayer, apical-out); assay type: cell-based, porcine respiratory coronavirus; settings: monolayer 24 h; apical-out 1 MOI, 48 h; IFA, RT-qPCR, TCID50, western blot
# Description: Fig 2 PM restricts TGEV and PRCV infection in porcine intestinal organoids. (A) Intestinal organoids cultured in 96-well plate were incubated with different concentrations of PM for 24 h, which was tested by Cell Counting Kit 8. (B and C) The intestinal organoids monolayer was treated with indicated PM and infected with TGEV Miller (0.1 MOI) for 24 h, which was measured by IFA (B), scale bar: 50 µm, RT-qPCR, TCID50, and western blot (C). (D) Apical-out intestinal organoids were treated with indicated PM and infected TGEV Miller (1 MOI) for 48 h, which was determined by RT-qPCR, TCID50, and western blot. (E and F) The intestinal organoids monolayer was treated with different concentrations of PM and infected with PRCV for 24 h, which was determined by IFA (E), scale bar: 50 µm, RT-qPCR, TCID50, and western blot (F). (G) Apical-out intestinal organoids were treated with indicated PM and infected PRCV (1 MOI) for 48 h, which was detected by RT-qPCR, TCID50, and western blot. Results are presented as mean ± SD of data from three independent experiments. **, P ≤ 0.01; ***, P ≤ 0.001.
# Porcine 3D ileum organoids coated with Matrigel for 1 week were dissociated by incubation in 5 mM cold EDTA buffer on a rotating platform for 1 h at 4°C. […]
# [2] = system: TGEV Miller; assay: TGEV infection of ST cells (RT-qPCR, TCID50, western blot, IFA); assay type: cell-based, transmissible gastroenteritis virus; settings: TGEV Miller 0.1 MOI, PM 1 h pretreatment and 17 h after infection, TCID50, western blot, IFA
# Description: Fig 1 PM inhibits TGEV and PRCV infection in ST cells. (A) A cytotoxicity assay of PM in ST cells. ST cells cultured in a 96-well plate were incubated with different concentrations of PM for 24 h, which was tested by Cell Counting Kit 8. (B) Time course for PM inhibiting TGEV or PRCV or PEDV infection assay. (C–F) The ST cells, pretreated with PM at the indicated concentrations for 1 h were infected with TGEV Miller (0.1 MOI) or PRCV (0.1 MOI) for 1 h and were again treated with PM at 37°C for 17 h. The cell samples were collected and examined by real-time quantitative PCR (RT-qPCR), TCID50, western blot (C and D), and immunofluorescence assay (IFA) (E and F), scale bar: 50 µm. (G) Vero-E6 cells were treated with indicated PM and infected with PEDV LJX 01/2014 according to the time course of Fig. 1B, which was detected by TCID50 and western blot. Results are presented as mean ± SD of data from three independent experiments. ns, no significant; **, P ≤ 0.01; ***, P ≤ 0.001.
# Fig 3 PM inhibits TGEV and PRCV infection by potassium ion and molybdate synergy. […] The cell samples were measured by RT-qPCR. (C and D) ST cells were treated with PM (K2MoO4, 10 mM), KCl (20 mM), Na2MoO4 (10 mM), sodium chloride (NaCl, 10 mM), K2MoO4 (10 mM), and NaCl (20 mM) as well as Na2MoO4 (10 mM) and KCl (20 mM) for 1 h and then infected with TGEV Miller (0.1 MOI) or PRCV (0.1 MOI) for 17 h, which was determined by RT-qPCR and TCID50. […]
# Total RNA was extracted using RNAiso reagent (TaKaRa, Japan, 9109) and reverse transcribed into cDNA using HiScript Q RT SuperMix for qPCR (Vazyme, China, R223-01), both of which followed the manufacturer’s recommendations. The TGEV and PRCV virus copy numbers were detected by the TaqMan probe-based RT-qPCR method developed previously in our laboratory ([59]). Relative qPCR was also performed using ChamQ SYBR qPCR master mix (Vazyme, China, Q311-02), and the results were calculated via the 2^-ΔΔCT method.
smiles,measurement,setting,value
"[K+].[K+].[O]=[Mo](=[O])([O-])[O-] [PM, potassium molybdate]",PRCV infection in organoid monolayer and apical-out organoids,[1],the same phenotypes were found
same,TGEV infection,[2],effectively restricted
